pIC50: −log10 of the molar value. “Also recorded” adds a separate entry of the source.
Legend:
chick CAM = assay: Chick chorioallantoic membrane (CAM) angiogenesis; format: in vivo; conditions: for inhibition of CAM angiogenesis (avascular zones): 5, 10 or 50 μg per pellet, 48 hr; for adverse effect on the wellbeing of the chick embryo: up to 50 μg per pellet
Experimental: FIG. 22. Inhibition of CAM angiogenesis by GSAO. Fertilised 3 day-old white Leghorn eggs were cracked, the embryos placed in petri dishes and incubated for 3 days. Methylcellulose discs containing 5, 10 or 50 μg of either GSAA or GSAO were then applied to the CAM of individual embryos and incubated for 48 hr. The CAMs were scored for no obvious effect or inhibition of angiogenesis as defined by avascular zones. Photographs of CAM's after incubation with discs containing 10 μg of either GSAA (top) or GSAO (bottom) is shown in the left hand panel. The dotted circle indicates the placement of the disc.
The chick CAM assay has been used for the detection and analysis of angiogenesis inhibition (Nguyen et al., 1994). Fertilised 3 day-old white Leghorn eggs (Spafas, Norwich, Conn.) were cracked, the embryos with intact yolks placed in 20×100 mm petri dishes and incubated for 3 days at 37° C. and 3% CO2 (Folkman, 1995). Methylcellulose (Fisher Scientific, Fair Lawn, N.J.) discs containing 5, 10 or 50 μg of either GSAA or GSAO were then applied to the CAM of individual embryos and incubated for 48 hr at 37° C. and 3% CO2. The discs were made by desiccation of GSAA or GSAO in 10 μl of 0.45% methycellulose on teflon rods. The CAMs were observed using a stereomicroscope and scored for no obvious effect or inhibition of CAM angiogenesis as defined by avascular zones. On some occasions CAM blood vessels were injected with India ink and photographed.

BVSM = assay: Proliferation of cultured cells, 72 hr; format: cell-based, bovine; conditions: 5% BCS, 0 to 1 mM
Experimental: (§1) FIG. 19. Effect of GSAO on proliferation of non-endothelial cells. 15,000 BxPC-3 (part A), HT1080 (part B), 3T3 (part C) or BVSM (part D) cells per well were seeded into gelatinised 24-well culture plates and allowed to attach for 24 hr. The media was then replaced with DMEM containing 0 to 1 mM GSAO or GSAA and either 5% BCS (part D) or 5% FCS (parts A, B and C). Cells were cultured for 72 hr and then dispersed and counted. The dotted lines indicate the cell number in control wells containing DMEM and 2% BCS (part D) or 2% FCS (parts A, B and C) which represented no to limited proliferation. The data points and errors represent the mean and range of duplicate wells.
BCE (Folkman et al. 1979), BAE, BxPC-3 (ATCC, Bethesda, Md.), HT1080 (Jiang et al., 1999), 3T3 (ATCC, Bethesda, Md.) and BVSM (Hogg et al., 1997) cells were harvested and cultured as indicated. […] Cells were cultured for 0 to 72 hr in 10% CO2 at 37° C. then dispersed in trypsin/EDTA (GibcoBRL, Granc Island, N.Y.), resuspended in Coulter balanced electrolyte solution and counted with a Z1 Coulter counter (Coulter Corp., Miami, Fla.) in all experiments there were two control wells containing DMEM with 1% GPS and either 5% BCS for BCE cells, 2% BCS for BAE and BVSM cells, or 2% FCS for BxPC-3, HT1080 and 3T3 cells. […]

BxPc3 = assay: Proliferation of cultured cells, 72 hr; format: cell-based, human; conditions: 5% FCS, 0 to 1 mM
Experimental: as §1
(§2) BCE (Folkman et al. 1979), BAE, BxPC-3 (ATCC, Bethesda, Md.), HT1080 (Jiang et al., 1999), 3T3 (ATCC, Bethesda, Md.) and BVSM (Hogg et al., 1997) cells were harvested and cultured as indicated. Cells (0.5 mL of 30,000 or 100,000 cells per mL) were seeded into gelatinized 24-well culture plates (Corning Costar, Corning, N.Y.) in Dulbecco's Modified Eagle's Medium (DMEM, JHR Bioscience, Lenexa, Kans.) containing 10% fetal calf serum (FCS, Intergen Comp., Purchase, N.Y.) and 1% Glutamine Pen-Strep (GPS, Irvine Scientific, Santa Ana, Va.) and allowed to attach for 24 hr in 10% CO2 at 37° C. The media was then replaced with DMEM and 1% GPS containing 0 to 1 mM GSAO or GSAA and either 5% bovine calf serum (BCS, HyClone, Logan, Utah) and 1 ng per mL FGF-2 (Genzyme, Cambridge, Mass.) or 5% BCS and 10 ng per mL VEGF (Genzyme, Cambridge, Mass.) for BCE cells, 5% or 10% BCS for BAE cells, 5% BCS for BVSM cells, and 5% FCS for BxPC-3, HT1080 and 3T3 cells. Cells were cultured for 0 to 72 hr in 10% CO2 at 37° C. then dispersed in trypsin/EDTA (GibcoBRL, Granc Island, N.Y.), resuspended in Coulter balanced electrolyte solution and counted with a Z1 Coulter counter (Coulter Corp., Miami, Fla.) in all experiments there were two control wells containing DMEM with 1% GPS and either 5% BCS for BCE cells, 2% BCS for BAE and BVSM cells, or 2% FCS for BxPC-3, HT1080 and 3T3 cells. These wells represented no to limited proliferation.

HT1080 = assay: Proliferation of cultured cells, 72 hr; format: cell-based, human; conditions: 5% FCS, 0 to 1 mM
Experimental: as §1, §2

BAE = assay: Proliferation of cultured cells, 72 hr; format: cell-based, bovine; conditions: for pIC50: 72 hr
Experimental: as §2

Structure (SMILES) | inhibition of CAM angiogenesis (avascular zones) (chick CAM) | adverse effect on the wellbeing of the chick embryo (chick CAM) | Proliferation IC50 (BVSM) | Proliferation IC50 (BxPc3) | Proliferation IC50 (HT1080) | effect on proliferation of BAE cells (BAE; not shown) | pIC50 (BAE; 5% BCS) | pIC50 (BAE; 10% BCS)
N[C@@H](CCC(=O)N[C@@H](CSCC(=O)Nc1ccc([As](=O)(O)O)cc1)C(=O)NCC(=O)O)C(=O)O [GSAA, 4-(N-(S-glutathionylacetyl)amino)phenylarsonic acid, reference compound] | did not inhibit CAM angiogenesis; also recorded: no effects on CAM angiogenesis | Neither GSAA nor GSAO had any apparent adverse effect | no significant effect | no significant effect | no significant effect | did not effect either proliferation or viability | – | –
NC(CCC(=O)NC(CSCC(=O)Nc1ccc([As]=O)cc1)C(=O)NCC(=O)O)C(=O)O (stereo not shown) [GSAO, 4-(N-(S-glutathionylacetyl)amino)-phenylarsenoxide] | inhibited angiogenesis in the CAM in a concentration-dependent manner | Neither GSAA nor GSAO had any apparent adverse effect | did not affect the proliferation | did not affect the proliferation | did not affect the proliferation | – | ~7.70 | ~6.70
